Common to all, as to type: physicochemical
The nature of data set [1]: Heat resistance of PMMA film sample (colorant residual rate). The conditions noted are these: 5% by weight in PMMA film on PET; 80° C. for 400 hours; absorbance at maximum absorption wavelength after vs before. On the procedure:
(§1) 2.5 g of PMMA and 0.125 g of the triarylamine derivative were dissolved in 25 ml of dichloromethane, and the solution was coated on a 100 μm-thick PET film. This was dried at 80° C. for 2 hours under reduced pressure to prepare a sample for assessment having a thickness of from 2 to 3 μm. The sample for assessment contained the triarylamine derivative at 5% by weight based on PMMA.
The sample for assessment obtained above was heat-treated at 80° C. for 400 hours. The absorbance of the assessment sample at the maximum absorption wavelength of the triarylamine derivative (colorant) was measured, and a colorant residual rate (%) was obtained as a ratio of the absorbance after heat treatment relative to the absorbance before heat treatment.

Data set [2] can be described thus: Wet heat resistance of PMMA film sample (colorant residual rate). The conditions noted are these: 5% by weight in PMMA film on PET; 60° C. and relative humidity of 90% for 200 hours; absorbance after vs before. Here is the method: as §1
The sample for assessment obtained above was subjected to wet heat treatment at 60° C. and a relative humidity of 90% for 200 hours. The absorbance of the assessment sample at the maximum absorption wavelength of the triarylamine derivative (colorant) was measured, and a colorant residual rate (%) was obtained as a ratio of the absorbance after wet heat treatment relative to the absorbance before wet heat treatment.

Data set [3] can be described thus: Light resistance of PMMA film sample (colorant residual rate). The conditions noted are these: 5% by weight in PMMA film on PET; xenon lamp 170,000 lux, UV cut filter, 170 hours; absorbance after vs before. On the procedure:
as §1
The sample for assessment obtained above was irradiation-treated for 170 hours with a xenon lamp (170,000 lux, using an UV cut filter). The absorbance of the assessment sample at the maximum absorption wavelength of the triarylamine derivative (colorant) was measured, and a colorant residual rate (%) was obtained as a ratio of the absorbance after irradiation treatment relative to the absorbance before irradiation treatment.

The nature of data set [4]: Solubility in 2-butanone (MEK). Here is the method: Solubility (w/v %) of the triarylamine derivative in 2-butanone (MEK) was measured.

Data on 2 molecules can be found in patent US20100249461A1, “TRIARYLAMINE DERIVATIVE” (priority 2007, published 2010).

Regarding `CCCCN(CCCC)c1ccc([N+](=C2C=CC(=[N+](CCCC)CCCC)CC2)c2ccc(N(CCCC)CCCC)cc2)cc1` [drawing 14], the “Heat Resistance (colorant residual rate)” value in data set [1] turned out to be 80%. For the same molecule, the “Wet Heat Resistance (colorant residual rate)” value in data set [2] turned out to be 45%. The “Light Resistance (colorant residual rate)” value in data set [3] is listed as 98%. The “Solubility (w/v)” value in data set [4] was 16% w/v %.

Take `CCCCN(CCCC)c1ccc([N+](=C2C=CC(=[N+](CCCC)CCCC)CC2)c2ccc(N(CCCC)CCCC)cc2)cc1` [drawing 15]: the “Heat Resistance (colorant residual rate)” value in data set [1] came out at 0%. The “Wet Heat Resistance (colorant residual rate)” value in data set [2] came out at 19%. Moreover, in data set [3], the “Light Resistance (colorant residual rate)” value stood at 80%. Besides, the “Solubility (w/v)” value in data set [4] is 15% w/v %.
